Experimental data taken from US6699989B1, “Antiviral and antimicrobial guanidine or biguanidine derivatives” (priority 2000, dated 2004).
Values after ≈ are worked out from the molar mass of the structure shown. Where two headings read alike, the source gives them in different places.

Key:
[1] = test system: HIV-1; assay: PBMC assay, virus production by reverse transcriptase activity; type: cell-based
Source text: Method 2: PBMC Assay Method (Peripheral Blood Mononuclear cell)—Description
This assay addresses the issue of providing a rationale for further evaluation of the compound by providing evidence of in vitro anti-HIV activity against a low passage clinical strain of HIV-1. These fresh human peripheral blood mononuclear cell assays use fresh human cells obtained from the American Red Cross from uninfected, normal human donors. Mononuclear cells from these blood samples are isolated by centrifugation and infected with low passage clinical strains of HIV-1 which have been obtained by culture of blood cells from HIV-infected patients with uninfected PBMCs. Since the PBMCs are not killed by HIV infection, endpoint quantification is performed by measurement of virus production in each well by reverse transcriptase assay or p24 ELISA. These assays provide evidence that the test compounds will have efficacy against viruses, which will likely be encountered in patients without genetic changes, introduced by passage in cell culture.
Thus, PBMCs assay measures the amount of virus released from the infected cells into the tissue culture supernatant. The activity of the test compound is measured by its ability to reduce the level of virus production relative to the virus controls (cells+virus with no added compound). In PBMC culture we use reverse transcriptase activity in the supernatant to quantify the amount of virus production from the infected cells. Endpoint quantification is performed at 6 days post-infection.
Fresh human peripheral blood lymphocytes (PBL) are isolated from voluntary Red Cross donors, seronegative for HIV and HBV. Leukophoresed blood is diluted 1:1 with Dulbecco's phosphate buffered saline (PBS), layered over 14 mL of Ficoll-Hypaque density gradient in a 50 mL centrifuge tube. Tubes are then centrifuged for 30 minutes at 600×g. Banded PBLs are gently aspirated from the resulting interface and subsequently washed 2× with PBS by low speed centrifugation. […] After incubation, PBLs are centrifuged and reset in RPMI 1640 with 15% FBS, 2 mM L-glutamine, 100 U/mL. penicillin, 100 ug/mL streptomycin, 10 ug/mL gentamycin, and 20 U/mL recombinant human IL-2. PBLs are maintained in this medium at a concentration of 1-2×10E6/mL with bi-weekly medium changes, until use in assay protocol. For the PBL assay, PHA-P stimulated cells from at least two normal donors are pooled, set in fresh medium at 2×10E6/mL and plated in the interior wells of a 96 well round bottom microplate at 50 μL/well. Test drug dilutions are prepared at a 2× concentration in microtiter tubes and 100 μL of each concentration is placed in appropriate wells in a standard format. 50 μL of a predetermined dilution of virus stock is placed in each test well. Wells with cells and virus alone are used for virus control. Separate plates are identically set without virus for drug cytotoxicity studies using an XTT assay system.
In the standard PBL assay (MOI: 0.2), the assay was ended on day 7 following collection of cell free supernatant samples for reverse transcriptase activity assay. In the low MOI PBL assay (MOI: 0.02), supernatant samples were collected on day 6, day 11, and day 14 post-infection and analyzed for RT activity.

[2] = test system: Escherichia coli ATCC 11229; assay: Microdilution broth MIC assay; type: cell-based; settings: ATCC11229, Ec, Mueller Hinton broth, about 17 hr
Description: (§1) Test organisms. The test organisms are listed in Table 5 along with their source. Prior to assay, overnight bacterial slant cultures were used to inoculate Mueller Hinton broth followed by incubation for 5-7 hr. Each culture was then standardized turbidimetrically to a viable count of about 10^6 colony forming units/ml and used to inoculate the mirotiter assay plates. The viable count after addition to the plates was about 5×10^5 CFU/ml.
(§2) Experimental design. The MIC of the test compounds for the bacterial strains was determined with a microdilution broth assay in 96 well microtiter plates. The test compounds were dissolved in DMSO and then diluted 10-fold in assay medium (Mueller Hinton broth) to obtain final concentrations of 0.128, 1.28, 12.8, and 128 μg/ml. A viability control containing DMSO, diluted in the same manner as the test compounds, was used to confirm that the DMSO was not inhibitory by itself. Trimethoprim (TMP) was used as a positive drug control. The assay plates were incubated at 37° C. for about 17 hr and each assay well observed visually for growth. The MIC was determined at the lowest concentration of drug which inhibited growth. [drawing 32]

[3] = test system: Klebsiella pneumoniae ATCC 4352; assay: Microdilution broth MIC assay; type: cell-based; settings: ATCC4352, Kp, Mueller Hinton broth, about 17 hr
Description: as §1, §2

[4] = test system: Proteus mirabilis ATCC 9921; assay: Microdilution broth MIC assay; type: cell-based; settings: ATCC9921, Pm, Mueller Hinton broth, about 17 hr
Description: as §1, §2

[5] = test system: Pseudomonas aeruginosa ATCC 15442; assay: Microdilution broth MIC assay; type: cell-based; settings: ATCC15442, Pa, Mueller Hinton broth, about 17 hr
Description: as §1, §2

[6] = test system: Staphylococcus aureus ATCC 6538; assay: Microdilution broth MIC assay; type: cell-based; settings: ATCC6538, Sa, Mueller Hinton broth, about 17 hr
Description: as §1, §2

[7] = test system: Staphylococcus epidermidis ATCC 35984; assay: Microdilution broth MIC assay; type: cell-based; settings: ATCC35984, Se, Mueller Hinton broth, about 17 hr
Description: as §1, §2

[8] = test system: HIV-1
Description: This is a cytoprotection assay that uses the T-lymphoblastoid tumor cell line CEM-SS and laboratory adapted strains of HIV-1. Upon infection with HIV, the CEM-SS cells form syncytia and eventually die, producing large amounts of progeny virus over the course of 4-6 days at the standard multiplicity of infection (0.01). The antiviral assay measures the ability of a given compound to inhibit the HIV-induced cell killing. […] The activity of the compound is evaluated by measuring cell viability at 6 days post-infection and comparing the viability to that obtained in cell control (cells only), virus control (cells and virus only) and toxicity control (cells and compound only) wells.
Efficacy of the compound in cell culture is measured by increased cell viability in CEM-SS assays or reduction in virus production in PBMC assays. The data obtained yields a dose response curve which can be evaluated to determine doses which yield 25%, 50% and 95% protection from HIV-induced cell killing or virus production. […] These concentrations are reported as the TC25, TC50 and TC95 values. The ratio of toxicity to efficacy constitutes the therapeutic index TC50/IC50.
CEM-SS cells assay measures the ability of the compound to inhibit HIV induced cell killing. The cells are stained at 6 days post-infection with the tetrazolium dye XTT which is converted to a colored formazan product by the mitochondria of viable cells. Protection from cell killing afforded by the test compound is measured by comparison to both cell controls and virus controls. Cell killing in this system is directly related to the amount of virus produced by the infected cells and XTT-formazan production is proportional to the number of viable cells in each well. Toxicity of the compound to the target cells is measured in parallel.
CEM-SS cells (or other established human cell line used in these experiments) were passaged in T-150 flasks for use in the assay. On the day preceding the assay, the cells were split 1:2 to assure they would be in an exponential growth phase at time of infection. On the day of assay the cells were washed twice with tissue culture medium and resuspended in fresh tissue culture medium. Total cell and viability counting was performed using hemacytometer and trypan blue dye exclusion. Cell viability was greater than 95% for the cells to be utilized in the assay. The cells were pelleted and resuspended at 2.5×10^4 cells per ml in tissue culture medium. Cells were added to the drug-containing plates in a volume of 50 μl.
A pretitered aliquot of virus was removed from the freezer (−80° C.) and allowed to thaw slowly to room temperature in a biological safety cabinet. The virus was resuspended and diluted into tissue culture medium such that the amount of virus added to each well in a volume of 50 μl will be the amount determined to give complete cell killing at 6 days post-infection. In general the virus pools produced with the IIIB isolate of HIV required the addition of 5 μl of virus per well.
Each plate contained cell control wells (cells only), virus control wells (cells plus virus), drug toxicity control wells (cells plus drug only), drug colorimetric control wells (drug only) as well as experimental wells (drug plus cells plus virus).
After 6 days of incubation at 37° C. in a 5% CO2 incubator the test plates were analyzed by staining with the tetrazolium dye XTT. XTT-tetrazolium is metabolized by the mitochondrial enzymes of metabolically active cells to a soluble formazan product, allowing the rapid quantitative analysis of the inhibition of HIV-induced cell killing by anti-HIV test substances. On day 6 post-infection plates were removed from the incubator and observed.

N=C(NCCCCCCNC(=N)NC(=N)N1CCN(c2cc3c(cc2F)c(=O)c(C(=O)O)cn3C2CC2)CC1)NC(=N)N1CCN(c2cc3c(cc2F)c(=O)c(C(=O)O)cn3C2CC2)CC1 [BVS-10A] was tested, and the “RT ACTIVITY MEAN” value ([1]; 0.01 μg/ml, ROJO in PBMC) was 6532.7 cpm, the “RT ACTIVITY MEAN” value ([1]; 0.032 μg/ml, ROJO in PBMC) was 7531.7 cpm and the “RT ACTIVITY MEAN” value ([1]; 0.1 μg/ml, ROJO in PBMC) was 5919.0 cpm. The “RT ACTIVITY MEAN” value ([1]; 0.32 μg/ml, ROJO in PBMC) was 5899.7 cpm, the “RT ACTIVITY MEAN” value ([1]; 1 μg/ml, ROJO in PBMC) was 6546.7 cpm and the “RT ACTIVITY MEAN” value ([1]; 3.2 μg/ml, ROJO in PBMC) was 2327.0 cpm. The “RT ACTIVITY MEAN” value ([1]; 10 μg/ml, ROJO in PBMC) was 274.0 cpm, the “RT ACTIVITY MEAN” value ([1]; 32 μg/ml, ROJO in PBMC) was 68.0 cpm and the “RT ACTIVITY MEAN” value ([1]; 100 μg/ml, ROJO in PBMC) was 49.3 cpm. The IC50 ([1]; Human immunodeficiency virus 1, PBMC, PBMCs, read-out: 50% inhibition of virus replication) was 2.5 µg/mL (≈ 2.74 µM), the activity at 0.01 µg/mL ([1]; Human immunodeficiency virus 1, 0.01 μg/ml, ROJO in PBMC, read-out: RT ACTIVITY % VC) was 90.8% and the activity at 0.032 µg/mL ([1]; Human immunodeficiency virus 1, 0.032 μg/ml, ROJO in PBMC, read-out: RT ACTIVITY % VC) was 105%. The activity at 0.1 µg/mL ([1]; Human immunodeficiency virus 1, 0.1 μg/ml, ROJO in PBMC, read-out: RT ACTIVITY % VC) was 82.2%, the activity at 0.32 µg/mL ([1]; Human immunodeficiency virus 1, 0.32 μg/ml, ROJO in PBMC, read-out: RT ACTIVITY % VC) was 82% and the activity at 1 µg/mL ([1]; Human immunodeficiency virus 1, 1 μg/ml, ROJO in PBMC, read-out: RT ACTIVITY % VC) was 91%. For the same compound, the activity at 3.2 µg/mL ([1]; Human immunodeficiency virus 1, 3.2 μg/ml, ROJO in PBMC, read-out: RT ACTIVITY % VC) was 32.3%, the activity at 10 µg/mL ([1]; Human immunodeficiency virus 1, 10 μg/ml, ROJO in PBMC, read-out: RT ACTIVITY % VC) was 3.8% and the activity at 32 µg/mL ([1]; Human immunodeficiency virus 1, 32 μg/ml, ROJO in PBMC, read-out: RT ACTIVITY % VC) was 0.9%. For the same compound, the activity at 100 µg/mL ([1]; Human immunodeficiency virus 1, 100 μg/ml, ROJO in PBMC, read-out: RT ACTIVITY % VC) was 0.7%, the IC50 ([1]; Human immunodeficiency virus 1, ROJO in PBMC, RT activity, read-out: IC50) was 2.54 µg/mL (≈ 2.78 µM) and the “concentrations at which active in PBMCs” value ([1]; PBMCs) was “greater than 3.2 μg/mL”. The MIC [2] was 0.128 to 1.28 µg/mL (≈ 0.14 to 1.4 µM), the MIC [3] was < 0.128 µg/mL and the MIC [4] was 0.128 to 1.28 µg/mL (≈ 0.14 to 1.4 µM). The MIC [5] was 1.28 to 12.8 µg/mL (≈ 1.4 to 14 µM), the MIC [6] was < 0.128 µg/mL and the MIC [7] was < 0.128 µg/mL. The “% RED. IN VIRAL CPE” value ([8]; 0.00032 uG/mL, CEM-SS, HIV1 RF) was 3%, the “ANTIVIRAL TEST VALUES MEAN O.D.” value ([8]; 0.00032 uG/mL, CEM-SS, HIV1 RF) was 0.038 O.D and the “% RED. IN VIRAL CPE” value ([8]; 0.001 uG/mL, CEM-SS, HIV1 RF) was 4%. The “ANTIVIRAL TEST VALUES MEAN O.D.” value ([8]; 0.001 uG/mL, CEM-SS, HIV1 RF) was 0.049 O.D, the “% RED. IN VIRAL CPE” value ([8]; 0.0032 uG/mL, CEM-SS, HIV1 RF) was 1% and the “ANTIVIRAL TEST VALUES MEAN O.D.” value ([8]; 0.0032 uG/mL, CEM-SS, HIV1 RF) was 0.009 O.D. For the same compound, the “% RED. IN VIRAL CPE” value ([8]; 0.01 uG/mL, CEM-SS, HIV1 RF) was 4%, the “ANTIVIRAL TEST VALUES MEAN O.D.” value ([8]; 0.01 uG/mL, CEM-SS, HIV1 RF) was 0.042 O.D and the “% RED. IN VIRAL CPE” value ([8]; 0.032 uG/mL, CEM-SS, HIV1 RF) was 7%. For the same compound, the “ANTIVIRAL TEST VALUES MEAN O.D.” value ([8]; 0.032 uG/mL, CEM-SS, HIV1 RF) was 0.083 O.D, the “% RED. IN VIRAL CPE” value ([8]; 0.1 uG/mL, CEM-SS, HIV1 RF) was 2% and the “ANTIVIRAL TEST VALUES MEAN O.D.” value ([8]; 0.1 uG/mL, CEM-SS, HIV1 RF) was 0.021 O.D. The “% RED. IN VIRAL CPE” value ([8]; 0.32 uG/mL, CEM-SS, HIV1 RF) was 4%, the “ANTIVIRAL TEST VALUES MEAN O.D.” value ([8]; 0.32 uG/mL, CEM-SS, HIV1 RF) was 0.051 O.D and the “% RED. IN VIRAL CPE” value ([8]; 1 uG/mL, CEM-SS, HIV1 RF) was 9%. For the same compound, the “ANTIVIRAL TEST VALUES MEAN O.D.” value ([8]; 1 uG/mL, CEM-SS, HIV1 RF) was 0.103 O.D, the “% RED. IN VIRAL CPE” value ([8]; 3.2 uG/mL, CEM-SS, HIV1 RF) was 2% and the “ANTIVIRAL TEST VALUES MEAN O.D.” value ([8]; 3.2 uG/mL, CEM-SS, HIV1 RF) was 0.025 O.D. The “% RED. IN VIRAL CPE” value ([8]; 10 uG/mL, CEM-SS, HIV1 RF) was 11%, the “ANTIVIRAL TEST VALUES MEAN O.D.” value ([8]; 10 uG/mL, CEM-SS, HIV1 RF) was 0.123 O.D and the “% RED. IN VIRAL CPE” value ([8]; 32 uG/mL, CEM-SS, HIV1 RF) was 100%. The “ANTIVIRAL TEST VALUES MEAN O.D.” value ([8]; 32 uG/mL, CEM-SS, HIV1 RF) was 1.515 O.D, the “% RED. IN VIRAL CPE” value ([8]; 32 uG/mL, CEM-SS, HIV1 RF, listed as BVS10A) was 100% and the “% RED. IN VIRAL CPE” value ([8]; 100 uG/mL, CEM-SS, HIV1 RF) was 100%. The “ANTIVIRAL TEST VALUES MEAN O.D.” value ([8]; 100 uG/mL, CEM-SS, HIV1 RF) was 1.717 O.D, the “% RED. IN VIRAL CPE” value ([8]; 100 uG/mL, CEM-SS, HIV1 RF, listed as BVS10A) was 100% and the IC95 ([8]; CEM-SS cells) was 30 µg/mL (≈ 32.9 µM). For the same compound, the “IC 25%” value ([8]; CEM-SS, HIV1 RF) was 12.00 UG/mL and the “IC 95%” value ([8]; CEM-SS, HIV1 RF) was 30.00 UG/mL.
